For one experiment, the target named is T1, sigma receptors (Cavia porcellus, UniProt Q60492).
T1 construct: The brain was immediately extracted; The cerebellum was removed from the brain; from tissue; host or cells: guinea pig brain without cerebellum, membrane pellet
In words: Receptor binding test: inhibition of tritium-labeled (+) pentazocine binding to brain homogenate. Also on record: species or system male guinea pig. On the procedure: (§1) Properties relating to binding of the vesamicol piperazine derivatives of the present invention to various receptors were examined as follows. Specifically, ligands which combine with each receptor were incubated together with homogenates prepared as follows.
To measure affinity to sigma receptors, tritium-labeled (+) pentazocine was added to a brain homogenate prepared as follows. The vesamicol piperazine derivatives synthesized in the Examples were added at various concentrations, and the mixture was incubated for two hours at room temperature.
(§2) B (%) =((1 0 0 × [U])^(∩))/([ I C50 (])^(∩) (+ [U])^(∩)) [formula] wherein B(%) is the proportion of specific binding in the total binding, n indicates a Hill coefficient, and U is the concentration of unbound ligand.
A male guinea pig was anesthetized with ether and was decapitated. The brain was immediately extracted. The cerebellum was removed from the brain. 10 mM Tris-sucrose buffer solution (0.32 M sucrose + 10 mM Tris-HCl (pH 7.4)) was added in the amount of 10 ml/g of the tissue. The mixture was homogenized by a potter-type homogenizer for 6-10 strokes. The homogenate was centrifuged at 1,000 x g for 10 minutes at 4°C and the supernatant liquid was collected. The resulting pellets were suspended in the Tris-sucrose buffer solution at the concentration of 2 ml/g, followed by centrifugation at 1,000 x g for 10 minutes at 4°C. The supernatant liquids obtained by the two centrifugation at 1,000 x g were combined and centrifuged at 31,000 x g for 15 minutes at 4°C. The resulting pellets were suspended in a 10 mM Tris-HCl buffer solution (pH 7.4) at a concentration of 3 ml/g of tissue and incubated for 30 minutes at 25°C. After incubation, the suspension was centrifuged at 31,000 x g for 15 minutes at 4°C. The pellets obtained were suspended in a 10 mM Tris-HCl buffer solution (pH 7.4) to make a final concentration of 1.53 ml/g of tissue. The suspension was homogenized by a potter-type homogenizer for 5 strokes. The homogenate was stored at -80°C until the start of the experiment.

The target in experiment [1] is T2, serotonin 5-HT1A receptors (Rattus norvegicus, UniProt P19327).
T2 construct: The hippocampi were immediately collected from the brains; from tissue; host or cells: rat hippocampus membranes
T2 sequence (P19327 1-422): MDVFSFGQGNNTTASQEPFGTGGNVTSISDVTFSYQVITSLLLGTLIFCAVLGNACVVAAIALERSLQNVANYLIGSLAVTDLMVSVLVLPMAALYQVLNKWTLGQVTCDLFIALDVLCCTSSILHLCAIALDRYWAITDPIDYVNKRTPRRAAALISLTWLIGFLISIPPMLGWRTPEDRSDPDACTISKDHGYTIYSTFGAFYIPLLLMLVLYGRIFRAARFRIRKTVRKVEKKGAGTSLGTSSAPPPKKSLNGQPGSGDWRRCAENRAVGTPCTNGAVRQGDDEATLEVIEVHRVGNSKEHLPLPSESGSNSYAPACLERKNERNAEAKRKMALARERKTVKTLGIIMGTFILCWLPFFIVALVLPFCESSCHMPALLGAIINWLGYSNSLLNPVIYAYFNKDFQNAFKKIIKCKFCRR
In words: Receptor binding test: inhibition of tritium-labeled 8-hydroxy-DPAT binding to brain (hippocampus) homogenate. Also on record: species or system Male Wistar rats. How it is done:
as §1
To measure affinity to serotonin 5-HT1A receptors, tritium-labeled 8-hydroxy-DPAT was added to a brain homogenate prepared as follows. The vesamicol piperazine derivatives synthesized in the Examples were added at various concentrations, and the mixture was incubated for 30 minutes at 37°C. To measure affinity to serotonin 5-HT2A receptors, tritium-labeled ketanserin was added to a brain homogenate prepared as follows. The vesamicol piperazine derivatives synthesized in the Examples were added at various concentrations, and the mixture was incubated for 15 minutes at 37°C.
as §2
Male Wistar rats were anesthetized with ether and were decapitated and the brains quickly extracted. The hippocampi were immediately collected from the brains. A 40-fold (vol/wt) amount of ice cooled 50 mM Tris-HCl buffer (pH 7.4) was added to the hippocampi. The mixture was homogenized using a potter-type homogenizer. The homogenate was centrifuged at 40,000 x g for 20 minutes. The supernatant liquid was removed and the resulting pellets were suspended in a 40-fold amount of Tris-HCl buffer solution. The suspension was centrifuged and the Tris buffer solution was again added to the pellets. This procedure was repeated twice. The product thus obtained was homogenized using a 40-fold amount of Tris-HCl buffer solution and incubated for 10 minutes at 37°C to remove endogenic 5-HT. The cell membrane was collected by centrifugation, washed twice, and suspended in a 10-fold amount of 50 mM Tris-HCl buffer solution (pH 7.4). The suspension thus obtained was stored at -80°C until the start of the binding experiment.

In experiment [2] the target is T3, vesamicol receptors (Rattus norvegicus, UniProt Q62666).
T3 sequence (Q62666 1-530): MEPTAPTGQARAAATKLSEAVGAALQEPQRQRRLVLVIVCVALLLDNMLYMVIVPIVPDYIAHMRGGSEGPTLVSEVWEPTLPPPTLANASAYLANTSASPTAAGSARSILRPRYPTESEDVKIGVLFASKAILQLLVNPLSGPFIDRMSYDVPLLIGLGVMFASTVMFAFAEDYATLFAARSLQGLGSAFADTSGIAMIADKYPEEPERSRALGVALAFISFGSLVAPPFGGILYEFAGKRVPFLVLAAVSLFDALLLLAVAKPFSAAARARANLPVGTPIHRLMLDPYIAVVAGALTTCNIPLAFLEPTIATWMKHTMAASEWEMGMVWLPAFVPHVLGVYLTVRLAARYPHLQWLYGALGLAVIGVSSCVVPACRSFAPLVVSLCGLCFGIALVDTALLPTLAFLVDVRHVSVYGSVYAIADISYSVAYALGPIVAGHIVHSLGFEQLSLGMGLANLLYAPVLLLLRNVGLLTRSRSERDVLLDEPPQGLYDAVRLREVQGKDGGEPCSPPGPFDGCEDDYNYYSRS
The experiment can be described thus: Receptor binding test: inhibition of I-125 labeled 5-iodobenzo vesamicol binding to brain homogenate. Also on record: from tissue; host or cells: rat brain without cerebellum, P2 fraction; species or system Male Wistar rats. The following applies: for IC50: Inhibitive concentration at 50% (IC50), Vesamicol receptor, Table 5, incubated three hours at 37°C, no unit printed in table (b19 gives nM for DRC140). How it is done: as §1
To measure affinity of vesamicol receptors, I-125 labeled 5-iodobenzo vesamicol (synthesized and labeled according to Jung et al., J. Med. Chem. 33, 2065-2068, 1990) was added to a brain homogenate prepared as follows. The vesamicol piperazine derivatives synthesized in the Examples were added at various concentrations. The mixture was then incubated for three hours at 37°C.
as §2
Male Wistar rats were anesthetized with ether and were decapitated. The brains were immediately extracted. The cerebella were removed from the brains. 0.32 M sucrose (containing 4 mM HEPES (pH 7.4)) in an amount of five times the wet amount (weight) of this sample was added. The sample was homogenized by a potter-type homogenizer for 12 strokes while cooling with ice. 0.32 M sucrose in the same amount as the homogenate (total: 10 times the wet amount of the original sample) was added. The suspension thus obtained was centrifuged for 5 minutes at 1,000 x g. The precipitate was removed. The supernatant liquid was centrifuged at 9,200 x g for 15 minutes to separate the precipitate from the supernatant liquid. P2 fractions were suspended in a Tris-HCl buffer (pH 7.4) for binding experiments and stored at -80°C until the start of the binding experiment.

Experiment [3] has as its target T3, vesamicol receptors. In words: Inhibition experiment: inhibition of binding of radioactive-iodine-labeled DRC140 to P2 fractions. The arrangement: Synaptic vesicles were extracted and separated from the brain of a rat; from tissue; host or cells: rat brain without cerebellum: P2, crude synaptic vesicles, purified synaptic vesicles.
A further experiment addresses adrenaline α1 receptors. The experiment can be described thus: Receptor binding test: inhibition of tritium-labeled prazosin binding to brain homogenate. Also on record: species or system Male Wistar rats.
For experiment [4], the target named is T3, vesamicol receptors. In words: Saturation experiment of I-125 labeled DRC140 on brain cell fractions (Scatchard plots). Type of experiment: binding. The following applies: at 37°C. The arrangement: Synaptic vesicles were extracted and separated from the brain of a rat; from tissue; host or cells: rat brain without cerebellum: P2, crude synaptic vesicles, purified synaptic vesicles.

Experiment [5] addresses T3, vesamicol receptors. In words: Inhibition experiment: inhibition of binding of radioactive-iodine-labeled DRC140 to purified synaptic vesicle fractions. The arrangement: Synaptic vesicles were extracted and separated from the brain of a rat; from tissue; host or cells: rat brain without cerebellum: P2, crude synaptic vesicles, purified synaptic vesicles. The following applies: for inhibitive action on purified synaptic vesicles: result in words.

Experiment [6] has as its target serotonin 5-HT2A receptors (Rattus norvegicus, UniProt P14842). In words: Receptor binding test: inhibition of tritium-labeled ketanserin binding to brain homogenate. The arrangement: species or system Male Wistar rats. The following applies: read-out: Inhibitive concentration at 50% (IC50), Serotonin receptor 5-HT2A.
[7] abbreviates: Inhibitive concentration at 50% (IC50), Sigma α-1 receptor.
Where [8] appears, read: inhibitive concentration at 50% (IC50), Receptor Vesamicol.

Read-outs that look alike come from different tables or passages of the source.

T1 sequence (Q60492 whole entry): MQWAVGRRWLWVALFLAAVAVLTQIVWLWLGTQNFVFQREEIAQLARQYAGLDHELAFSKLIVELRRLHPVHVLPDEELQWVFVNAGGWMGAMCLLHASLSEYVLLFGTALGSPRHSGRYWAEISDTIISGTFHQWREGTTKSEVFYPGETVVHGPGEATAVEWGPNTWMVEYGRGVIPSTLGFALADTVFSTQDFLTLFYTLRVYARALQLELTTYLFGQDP
serotonin 5-HT2A receptors, sequence (P14842 whole entry): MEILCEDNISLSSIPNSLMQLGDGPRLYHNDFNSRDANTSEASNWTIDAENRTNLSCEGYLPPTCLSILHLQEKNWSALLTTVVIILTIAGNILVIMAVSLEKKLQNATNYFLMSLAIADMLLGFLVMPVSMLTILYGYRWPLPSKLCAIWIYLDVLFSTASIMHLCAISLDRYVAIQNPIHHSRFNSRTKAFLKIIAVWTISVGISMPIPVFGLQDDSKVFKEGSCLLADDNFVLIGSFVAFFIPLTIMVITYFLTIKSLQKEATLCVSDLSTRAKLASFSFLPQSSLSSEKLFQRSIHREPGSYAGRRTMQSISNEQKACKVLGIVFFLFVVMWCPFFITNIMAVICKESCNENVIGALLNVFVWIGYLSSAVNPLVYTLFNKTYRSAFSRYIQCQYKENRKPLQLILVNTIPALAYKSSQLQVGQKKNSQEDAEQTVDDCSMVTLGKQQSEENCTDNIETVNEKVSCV

As for `Cc1ccccc1N1CCN([C@@H]2Cc3c(I)cccc3C[C@H]2O)CC1` (single isomer, unassigned) [DRE342, (-)-trans-5-iodo-2-hydroxy-3-[4-[2-methylphenyl]piperazinyl]tetralin], the IC50 on sigma receptors (setting [7]) came to 50 nM; in experiment [1], 512 nM; on vesamicol receptors [2] it was 0.23 nM; on vesamicol receptors [3] (setting [8]) it was 0.56 nM.

For “m-(iodobenzyl)trozamicol [(+)-MIBT, reference compound]”, the IC50 was 421 nM on adrenaline α1 receptors (read-out: inhibitive concentration at 50% (IC50), Receptor Alpha-1, Table 9, high purity derivatives, unit inferred); 4.27 nM on sigma receptors (read-out: inhibitive concentration at 50% (IC50), Receptor Sigma-1, Table 9, high purity derivatives, unit inferred); 16600 nM in experiment [1] (read-out: inhibitive concentration at 50% (IC50), Receptor 5-HT1A, Table 9, high purity derivatives, unit inferred); 0.89 nM on vesamicol receptors [3] (read-out: inhibitive concentration at 50% (IC50), Receptor Vesamicol, Table 9, high purity derivatives (HPLC purified), I-125 labeled DRC140, P2 fractions, 3 hours at 37°C, unit inferred).

As to `O[C@@H]1Cc2cccc(I)c2C[C@H]1N1CCC(c2ccccc2)CC1` [5-iodobenzovesamicol], at adrenaline α1 receptors (applicant's own research, read-out: affinity to an α1-receptor (IC50)), the IC50 worked out at 6.74 nM.

For `O[C@@H]1Cc2cccc(I)c2C[C@H]1N1CCN(c2ccccc2)CC1` [DRC140, (-)-trans-5-iodo-2-hydroxy-3-(4-phenyl-1-piperazinyl)tetralin], the IC50 on adrenaline α1 receptors (read-out: Inhibitive concentration at 50% (IC50), Adrenaline α1 receptor, Table 5, incubated 30 minutes at 37°C, unit inferred) stood at 402 nM; on adrenaline α1 receptors (text of disclosure, adrenaline-type nerve system receptor, read-out: IC50 value for α1-receptor), 402 nM. Further, the “greater affinity to vesamicol receptors (versus α1-receptor)” value on vesamicol receptors [2] (ratio of IC50 α1-receptor / vesamicol receptors) is listed as 190 times. Also, the “activity to the vesamicol receptor as high as the activity to the sigma receptor” value on vesamicol receptors [2] (ratio vesamicol receptor versus sigma receptor) is on record as 4,000 times. The “time to reach equilibrium” value at vesamicol receptors [4] was 3 h.

As for `Cc1ccccc1NC(=N)Nc1ccccc1C` [DTG, reference compound], the “inhibitive action on P2 fractions” value on vesamicol receptors [3] is given as “weak inhibitive action”. In addition, the IC50 on vesamicol receptors [3] (IC50 (nM) Average ± S.D) came out at 3820 ± 930 nM; at vesamicol receptors [5], 4160 ± 251 nM. Further, at vesamicol receptors [5], the “inhibitive action on purified synaptic vesicles” value is given as “almost the same degree of weak inhibitive action”.

As to `O=C(c1ccc(F)cc1)C1CCN(CCn2c(=O)[nH]c3ccccc3c2=O)CC1` [Ketanserin, reference compound], the IC50 at vesamicol receptors [3] (Table 7, P2 fractions, inhibition of radioactive-iodine-labeled DRC140 binding, Binding site names the inhibitor's own site, read-out: IC50 (nM) Average ± S.D) amounted to 1110 ± 187 nM; on vesamicol receptors [5] (Table 8, purified synaptic vesicle fractions, inhibition of radioactive-iodine-labeled DRC140 binding, read-out: IC50 (nM) Average ± S.D), 1200 ± 43 nM. Also, the “inhibitive action on P2 fractions” value at vesamicol receptors [3] (result in words) is “weak inhibitive action”. Also, the “inhibitive action on purified synaptic vesicles” value at vesamicol receptors [5] was “almost the same degree of weak inhibitive action”.

Take `Cc1ccc(C)c(N2CCN([C@@H]3Cc4c(I)cccc4C[C@H]3O)CC2)c1` (single isomer, unassigned) [DRE350, (-)-trans-5-iodo-2-hydroxy-3-[4-[2,5-dimethylphenyl]piperazinyl]tetralin]: the IC50 on sigma receptors (read-out: Inhibitive concentration at 50% (IC50), Sigma α-1 receptor) is 1500 nM; on sigma receptors (read-out: inhibitive concentration at 50% (IC50), Receptor Sigma-1), 5550 nM; in experiment [1] (read-out: Inhibitive concentration at 50% (IC50), Serotonin receptor 5-HT1A), 240 nM; in experiment [6], more than 20000 nM; at vesamicol receptors [2], 0.58 nM; at vesamicol receptors [3] (setting [8]) it was 0.83 nM.

As to `O[C@@H]1Cc2cc(I)ccc2C[C@H]1N1CCN(c2ccccc2)CC1` (racemic) [DRG449, (±)-trans-7-iodo-2-hydroxy-3-[4-phenylpiperazinyl]tetralin], the IC50 at sigma receptors (inhibitive concentration at 50% (IC50), Receptor Sigma-1) was 348 nM; in experiment [1], 4770 nM; on vesamicol receptors [3] (setting [8]), 0.55 nM.

For the compound `Cc1ccc(C)c(N2CCN([C@@H]3Cc4c(I)cccc4C[C@H]3O)CC2)c1` (single isomer, unassigned) [DRE351, (+)-trans-5-iodo-2-hydroxy-3-[4-[2,5-dimethylphenyl]piperazinyl]tetralin], the IC50 was found to be 4500 nM on sigma receptors (setting [7]), 664 nM in experiment [1], 7.11 nM on vesamicol receptors [2] and 11.4 nM on vesamicol receptors [3] (setting [8]).

The record behind these values is patent publication EP1205473A1, “VESAMICOL PIPERAZINE DERIVATIVES AND DRUGS CONTAINING THE SAME” (DAIICHI RADIOISOTOPE LABORATORIES, LTD., priority 1999, dated 2001).
